According to patent publication US12329828B2, “Pyrimidine nucleoside compounds for fluorescence imaging and spectroscopy” (San Diego State University Foundation, priority 2020, dated 2025):
“And” between values parts separate entries of the source, which are not always exact repeats. Equal entries are not always repeated. Marks after values point to notes of the source that are not given here.

Assays:
Format in all cases: physicochemical
[1] = Steady-state photophysical measurements of ABN in single-stranded and duplex DNA oligonucleotides
Source text: Next, we measured the fluorescence of ABN in single-stranded and duplex DNA oligonucleotides to determine how base pairing and stacking influence its photophysical properties (Table 2). ABN increases its fluorescence to Φem=0.50-0.53 in matched duplex DNA oligonucleotides when base paired with A and Φem=0.55 when the analogue is present in the hairpin loop of ODN1. The quantum yield is less, 0.40 and 0.29, in ODN1:ODN3 and ODN4:ODN6 respectively, in which ABN is base paired with G. In ODN7:ODN9 Φem,=0.55, slightly greater than when base paired with A. In all of these single-stranded and duplex sequences, ABN is brighter than any other known FBA when present in oligonucleotides.
(§1) Quantum yields measurements. Experiments were measured in a quartz sub-micro cuvette (10 mm path length) purchased from Starnacell Inc. Steady state emission scans were recorded using a PTI QuantaMaster QM-400 and absorbances were measured on a Shimadzu UV-1700 Pharmaspec spectrometer. Quantum yield measurements were performed the comparative method of Williams et. al. and measured in duplicate, at minimum. Coumarin 153 in ethanol was used as a reference standard for all photophysical measurements. All measurements were taken with an absorbance range of 0.01-0.1. Subsequent dilutions were performed stepwise in order to obtain a minimum of six absorbance and emission spectra for quantum yield determinations.

[2] = Two-photon single-molecule characterization (fluorescence correlation spectroscopy)
Source text: Single-molecule fluorescence measurements. Given the very attractive bulk-level photophysical properties of ABN in solution, we next investigated its potential as a single-molecule probe. […] In a later study, the base analogue DMA^thaU was detected as a free nucleoside at the single-molecule level for the first time via multiphoton excitation with a brightness of […] per molecule following three-photon excitation (see Phys. Chem. Chem. Phys. 2018, 20 (45), 28487; and J. Phys. Chem. Lett. 2019, 10 (17), 5008). […] The 2P brightness was measured using fluorescence correlation spectroscopy (FCS) and found to match that of DMA^thaU at 7 kHz per molecule (FIG. 3B).
Sample preparation for 2P method. All experiments were done with a solution of approximately 100 nM of ABN in TRIS buffer (20 mM TRIS base) at a pH of 7.5. The molecules were initially dissolved in DMSO (at a concentration of 100 μM) and subsequently diluted in buffer. The TRIS buffer was prepared with ultrapure water (Direct Q3, Merck Millipore), TRIS-base (20 mM, Trizma base, BioUltra, Sigma-Aldrich) and 150 mM NaCl (analytical reagent grade, Fluka). The pH was adjusted to 7.5 with a HCl solution (Sigma-Aldrich). Prior to sample preparation, the buffer was filtered with activated charcoal (Darco, Fluca) and through a 0.2 μm filter (Milex, Merck).
Two photon microscope. The two-photon microscope is a homebuilt pulse-shaper assisted setup with a ultra-broadband Ti:Sa laser as light source, recently described (R. S. Fisher, et al., Phys. Chem. Chem. Phys., 20, 28487 (2018)). The excitation source was a broadband Ti: Sapphire laser with a repetition rate of 80 MHz and a spectrum centered on 800 nm with a FWHM of 135 nm (Vitara UBB, Coherent). […] Sample fluorescence was collected by the same objective and transmitted through a dichroic mirror (Chroma 675dcspxr) and a short pass filter (Semrock FF01-650/SP), split by a polarising beamsplitter cube and detected by two avalanche photodiodes (MPD PDM 50c and 1MPD $PD-050-CTB). The signal was subsequently detected by a hardware correlator (ALV-7002, ALV GmbH).

[3] = One-photon single-molecule total internal reflection fluorescence (smTIRF) microscopy
Source text: The red-shifted absorption profile, high 2P brightness and predominance of the bright state made ABN a promising candidate for single-molecule detection via 1P excitation. […] Furthermore, these fluorescent puncta underwent single-step photobleaching under constant irradiation (FIG. 4B), consistent with the idea that ABN has suitable optical properties to be used as a single-molecule fluorescent nucleoside. By quantifying >2000 individual trajectories, we were able to determine the mean total detected photon value of 5300±1800 photons per molecule; furthermore, a mean of 1500±600 photons were detected per 100 ms integration from each molecule at a power density of 0.2 kW cm^−2.
Sample and slide preparation for IP method. ABN (10 mM, DMSO) was diluted into filtered (0.2 μm syringe filter, Whatman, 6780-1302) PBS (pH 7.4) to a working concentration of 100 nM. Borosilicate glass coverslips (VWR Int, 22×22 mm) were cleaned for 1 hour using an argon plasma (PDC-002, Harrick Plasma). Frame-Seal slide chambers (9×9 mm^2, Biorad, Hercules, CA) were affixed to the glass and the slides washed three times with filtered PBS (3×50 μL). The working solution of ABN (100 nM, 50 μL) was added to the slide and left for 3-minutes allowing for some of the ABN molecules to adsorb to the plasma-cleaned glass surface. […]
Single-molecule imaging. Single-molecule fluorescence imaging of ABN was performed on a bespoke total internal reflection fluorescence microscope using a 488 nm continuous wavelength diode laser (iBeamSMART, Toptica, 200.46 Wcm^−2). […] Fluorescence emission was collected by the same objective lens and separated from excitation light using a dichroic mirror (Di01-R405/488/561/635, Semrock) and passed through appropriate emission filters (BLP01-488R-25, FF01-520/44-25, Semrock). The fluorescence was then expanded (1.5×) and focused onto an electron-multiplying charge-coupled device (EMCCD, Evolve 512 Delta, Photometrics) with an electron multiplication gain of 250 ADU/photon operating in frame transfer mode. […]
Data analysis. A custom ImageJ macro was used to determine the total number of photons detected from single ABN emitters. The frames from single-molecule movies were summed and the pixel of peak intensity from each molecule was determined using the inbuilt ‘Find Maxima’ function (prominence threshold=20,000). The single emitters were selected from a 6×6 region surrounding the pixel of peak intensity and the total integrated intensity of the region was measured. […] The intensity per ABN emitter was converted from counts to photons detected by dividing the integrated signal above background by the total gain of the EMCCD (35.7 ADU/photon).

[4] = Steady-state absorption and fluorescence of the ABN nucleoside in solvents
Source text: Photophysical properties. Steady-state measurements. […] Owing to the conjugated push-pull system in the design of ABN, the absorption and emission wavelengths are the longest known for a FBA designed to be capable of Watson-Crick hydrogen bonding. Recorded emission spectra in water using excitation wavelengths ranging from 310-500 nm are nearly superposable, as are excitation spectra recorded for emission wavelengths spanning 500-650 nm. These observations support the predominance of a single tautomeric form in dilute, aqueous solution.
as §1

[5] = Melting temperatures of ABN-containing oligonucleotides (temperature-dependent circular dichroism); details: for Tm: ABN-containing hairpin or duplex
Source text: Temperature-dependent circular dichroism measurements of all six duplexes are consistent with the B-DNA conformation with only minimal perturbation (Table 2). Except in the ODN1 hairpin, where ABN is expected to be mostly solvent exposed, the melting temperatures of the duplexes are typically somewhat depressed as compared with their natural counterparts. Duplex stability is lowest when ABN has 5′-G and 3′-C neighbors, an observation consistent with other tricyclic FBAs, especially those that are electron-rich. The observed melting temperatures provide little indication of whether ABN is a better T- or C-surrogate.

[6] = Steady-state photophysical measurements of ABN in single-stranded and duplex DNA oligonucleotides; details: 1×PBS buffer (pH 7.4), different concentrations
[7] = ABN in DNA oligonucleotide, 1×PBS buffer (pH 7.4)
[8] = Tm of ABN-containing duplex − Tm of corresponding duplex with canonical thymidine in place of ABN

## CCN(CC)c1ccc2cc3cc([C@H]4C[C@@H](O)[C@@H](CO)O4)c(=O)nc-3[nH]c2c1 [ABN, 8-(diethylamino)-3-((2R,4R,5R)-4-hydroxy-5-(hydroxymethyl)tetrahydrofuran-2-yl)benzo[b][1,8]naphthyridin-2(10H)-one]
[1]; in matched duplex DNA oligonucleotides, base paired with A
  Φem: 0.50-0.53
[2]; FCS, controlled dilution
  bright/dark state by controlled dilution: exclusively in a bright state
[2]; FCS, two-photon excitation, 100 nM in TRIS buffer, excitation power 11 mW
  2P brightness (average count rate per molecule): 7 kHz per molecule and 7±0.5 kHz per molecule
[2]; single-molecule fluorescence measurements
  fraction of compound in a bright state: > 95%
[3]; 0.2 kW cm^−2
  mean total on-time: 0.35 ± 0.18 s
[3]; 488 nm, 0.2 kW cm^−2, 100 ms integration
  mean number of photons detected per frame per single molecule: 1500±600 photons/100 ms
[3]; 488 nm, 0.2 kW cm^−2, log-normal fit, N=2402 molecules
  mean total number of photons detected per single molecule: 5300±1800 photons
[3]; one-photon excitation
  brightness following 1P excitation: 15 kHz per molecule
[4]
  λem, max: 540 nm
[4]; 1,4-dioxane
  ε · Φem (brightness): 19000 M⁻¹ cm⁻¹
  λem, max: 474 nm
  λex, max: 420 nm
[4]; 1,4-dioxane, emission 474 nm
  Φem: 0.64
[4]; 1 × PBS pH 7.4
  Φem: 0.39
  λex, max: 442 nm
[4]; H2O
  ε · Φem (brightness): 7800 M⁻¹ cm⁻¹
  λem, max: 540 nm
  λex, max: 442 nm
[4]; H2O, emission 540 nm
  Φem: 0.39
[4]; aqueous solution
  red shift of absorption relative to closest competitors on brightness (pA, coumarin nucleoside): more than 50 nm
  red shift of emission relative to closest competitors on brightness (pA, coumarin nucleoside): > 80 nm

## ODN1: hairpin GCT TAG CAG GXT AGT GCT AAG C (SEQ ID NO: 1), X = ABN in loop (GCT TAG CAG GXTAGT GCT AAG C; ABN abasic-like nucleoside in loop, as printed in the source, key not given here)
[1]; [7]
  Φem: 0.55
  λabs, max: 450 nm
  λem, max: 530 nm
[5]
  Tm: 63.6 ± 0.6 °C
[5]; [8]
  ΔTm: +3.1 °C

## ODN1:ODN2: duplex of ODN1 with ODN2 (HairpinA, SEQ ID NO: 4); ABN base paired with A (chain 1 GCTTAGCAGGNTAGTGCTAAGC; chain 2 GCTTAGCACTAACCTGCTAAGC; ABN nucleoside, chemistry not fully specified)
[1]; [7]
  Φem: 0.53
  λabs, max: 440 nm
  λem, max: 530 nm
[5]
  Tm: 61.8 ± 0.4 °C
[5]; [8]
  ΔTm: −4.7 °C

## ODN1:ODN3: duplex of ODN1 with ODN3 (HairpinG, SEQ ID NO: 5); ABN base paired with G (chain 1 GCTTAGCAGGNTAGTGCTAAGC; chain 2 GCTTAGCACTAGCCTGCTAAGC; ABN nucleoside, chemistry not fully specified)
[1]; [7]
  Φem: 0.40
  λabs, max: 468 nm
  λem, max: 523 nm
[5]
  Tm: 61.3 ± 0.6 °C
[5]; comparison with Tm of the corresponding natural duplex with a C:G base pair
  ΔTm: +1.6^c ° C.

## ODN4: 10-mer CGC AAX ATC G (SEQ ID NO: 2), X = ABN (ABN nucleoside, as printed in the source, key not given here)
[1]; [7]
  Φem: 0.49
  λabs, max: 452 nm
  λem, max: 540 nm

## ODN7: 10-mer CGC AGX CTC G (SEQ ID NO: 3), X = ABN (ABN nucleoside, as printed in the source, key not given here)
[1]; [7]
  Φem: 0.62
  λem, max: 532 nm
[6]
  concentration dependence of absorption spectra: concentration dependent
